Results from the Deep4Chem optical property database.
Blank lines part the entries; values can stand above or below the molecule they belong to.

Assay: solvent given as SMILES

emission maximum (in CS(C)=O): 417 nm
emission maximum (in O): 417 nm
SMILES: O=c1c2cc(S(=O)(=O)O)ccc2[nH]c2ccc(S(=O)(=O)O)cc12

emission maximum (in O): 397 nm
SMILES: Cc1ccc2c(c1)n(C)c(-c1ccc(-c3ccc(-c4ccc(-c5n(C)c6cc(C)ccc6[n+]5C)cc4)cc3)cc1)[n+]2C

emission maximum (in CN(C)C=O): 416 nm
SMILES: Cc1ccc2[nH]c(-c3ccc(-c4ccc(-c5ccc(-c6nc7cc(C)ccc7[nH]6)cc5)cc4)cc3)nc2c1

SMILES: CC1(C)OB(c2cc3ccc4cc(B5OC(C)(C)C(C)(C)O5)cc5ccc(c2)c3c45)OC1(C)C
emission maximum (in Cc1ccccc1): 400 nm

emission maximum (in C1CCOC1): 512 nm
emission maximum (in CC#N): 542 nm
emission maximum (in CCO): 525 nm
emission maximum (in CS(C)=O): 547 nm
SMILES: CCOC(=O)c1ccccc1-c1c2ccc(=O)cc-2oc2cc(OC(=O)[C@H](CO[Si](C)(C)C(C)(C)C)NC(=O)OC(C)(C)C)ccc12

emission maximum (in ClC(Cl)Cl): 738 nm
SMILES: COc1ccc(-c2cc3c(o2)=CC2=C(C(F)(F)F)c4cc5oc(-c6ccc(OC)cc6)cc5n4[B-](F)(F)[N+]=32)cc1

SMILES: CN(C)c1ccc2nc3c(cc2c1)c(-c1ccccc1)nn3-c1ccccc1
emission maximum (in C1CCCCC1): 444.44 nm
emission maximum (in C1CCOC1): 534.19 nm
emission maximum (in CC#N): 561.48 nm
emission maximum (in CC(C)=O): 552.79 nm
emission maximum (in CCCCCl): 516 nm
emission maximum (in CCCCOCCCC): 498.75 nm
emission maximum (in CN(C)C=O): 566.89 nm

emission maximum (in C1CCOC1): 432 nm
SMILES: O=S1(=O)C(c2cccs2)=C(c2cccs2)c2ccccc21

emission maximum (in ClCCl): 515 nm
SMILES: CCOc1ccc(/C=C/c2nc(N3CCOCC3)c3c([n+]2[O-])CCCC3)cc1

emission maximum (in ClCCl): 549 nm
SMILES: COc1ccc(N2c3sc4ccccc4c3Sc3c2sc2ccccc32)cc1

emission maximum (in C1CCCCC1): 329 nm
emission maximum (in CC#N): 340 nm
emission maximum (in CO): 345 nm
emission maximum (in O): 350 nm
SMILES: CCOC(=O)COc1ccc(C(c2c(C)[nH]c3ccccc23)c2c(C)[nH]c3ccccc23)cc1OC

emission maximum (in ClCCl): 555 nm
SMILES: Brc1ccc(N(c2ccc(/C=C/c3ccncn3)cc2)c2ccc(/C=C/c3ccncn3)cc2)cc1

emission maximum (in C1CCOC1): 351.7 nm
emission maximum (in CC#N): 352.7 nm
emission maximum (in CC(C)O): 351.3 nm
emission maximum (in CCCCO): 351.4 nm
emission maximum (in CCO): 352.3 nm
emission maximum (in CO): 352.2 nm
emission maximum (in ClCCl): 353.1 nm
emission maximum (in O): 355.5 nm
SMILES: COc1ccc2cc([C@H](C)C(=O)O)ccc2c1

SMILES: c1ccc(N2c3ccc4ccccc4c3-c3c4ccccc4nc[n+]3[B-]2(c2ccccc2)c2ccccc2)cc1
emission maximum (in C1CCC2CCCCC2C1): 642 nm
emission maximum (in C1CCCCC1): 640 nm
emission maximum (in C1CCOC1): 665 nm
emission maximum (in CC#N): 677 nm
emission maximum (in CC(C)=O): 675 nm
emission maximum (in CCCCCC): 641 nm
emission maximum (in CCOC(C)=O): 665 nm
emission maximum (in CN(C)C=O): 680 nm
emission maximum (in Cc1ccccc1): 654 nm
emission maximum (in ClC(Cl)Cl): 676 nm

emission maximum (in C1CCCCC1): 636 nm
emission maximum (in CCOC(C)=O): 700 nm
SMILES: CC1=[N+]2C(=C(NCc3ccccc3)c3ccc(C)n3[B-]2(F)F)C=C1c1cc2n(c1)[B-](F)(F)[N+]1=CC=CC1=C2c1c(C)cc(C)cc1C

emission maximum (in ClCCl): 563 nm
SMILES: CCC1=C(CC)c2cccc3c2c(cc2nc4ccccc4nc23)O1

emission maximum (in ClC(Cl)Cl): 728 nm
SMILES: CCCCCCCCC1(CCCCCCCC)c2cc3c(cc2-c2sc(-c4ccc(/C=C5\SC(=S)N(CC)C5=O)c5nsnc45)cc21)C(CCCCCCCC)(CCCCCCCC)c1cc(-c2ccc(/C=C4\SC(=S)N(CC)C4=O)c4nsnc24)sc1-3

SMILES: O=S1(=O)c2ccc(-c3ccc(-n4c5ccccc5c5ccccc54)cc3)cc2C2(c3ccccc3-c3ccccc32)c2cc(-c3ccc(-n4c5ccccc5c5ccccc54)cc3)ccc21
emission maximum (in CC(C)=O): 443.88 nm
emission maximum (in CCCCCC): 400.18 nm
emission maximum (in CN(C)C=O): 455.8 nm
emission maximum (in Cc1ccccc1): 396.57 nm
emission maximum (in ClCCl): 432 nm

SMILES: CSc1nc(-c2ccc(-n3c4ccccc4c4ccccc43)cc2)cc(-c2ccc(-n3c4ccccc4c4ccccc43)cc2)n1
emission maximum (in C1CCOC1): 447 nm
emission maximum (in CN(C)C=O): 497 nm
emission maximum (in Cc1ccccc1): 410 nm
emission maximum (in ClC(Cl)Cl): 446 nm

SMILES: CCN1C(=O)C(C2C(=O)c3c4ccccc4cc4cc5ccccc5c2c34)C(=O)N(CC)C1=S (stereo unspecified)
emission maximum (in C1CCOC1): 571 nm
emission maximum (in CCCCCC): 544 nm
emission maximum (in Cc1ccccc1): 564 nm
emission maximum (in ClCCl): 582 nm

emission maximum (in C1CCCCC1): 363 nm
SMILES: CCCC1(CCC)c2cc(-c3cccc(C)c3)ccc2-c2ccc(-c3cccc(C)c3)cc21

emission maximum (in ClCCl): 442 nm
SMILES: F[B-]1(F)Oc2ccccc2-c2c3c(c4c([n+]21)CCc1ccccc1-4)CCc1ccccc1-3

SMILES: O=c1cc(C(F)(F)F)c2cc3c4c(c2o1)CCCN4CCC3
emission maximum (in C1CCCCC1): 455 nm
emission maximum (in CC#N): 521 nm
emission maximum (in CCO): 531 nm
emission maximum (in CCOC(C)=O): 501 nm
emission maximum (in OCC(O)CO): 546 nm

emission maximum (in c1ccccc1): 448 nm
SMILES: COc1ccc2nc(-c3ccccc3)c(=O)oc2c1

emission maximum (in ClC(Cl)Cl): 388 nm
SMILES: CC(C)(C)c1ccc(-c2ccc(-c3c4c(nc5ccccc35)-c3cc5c(cc3CC4)-c3nc4ccccc4c(-c4ccc(-c6ccc(C(C)(C)C)cc6)cc4)c3CC5)cc2)cc1

emission maximum (in CC#N): 575 nm
emission maximum (in CCO): 581 nm
emission maximum (in CN(C)C=O): 576 nm
emission maximum (in O): 591 nm
SMILES: CCN(CC)c1ccc2c(-c3ccc(S(=O)(=O)O)cc3S(=O)(=O)[O-])c3ccc(=[N+](CC)CC)cc-3oc2c1

SMILES: CC[N+]1(CC)CN2C(=N1)C(C(=O)O)=Cc1cc(Cl)ccc12
emission maximum (in O): 472 nm

emission maximum (in CCO): 644 nm
emission maximum (in O): 652 nm
SMILES: CC/[NH+]=c1\cc2oc3cc(NCCC(=O)NCC(=O)OC)c4ccccc4c3nc-2cc1C

emission maximum (in ClCCl): 418 nm
SMILES: CCCc1cc2c(s1)-c1cc3c(cc1NB2c1ccccc1)-c1sc(CCC)cc1B(c1ccccc1)N3

emission maximum (in C1CCCCC1): 421 nm
emission maximum (in C1CCOC1): 483 nm
emission maximum (in CC#N): 529 nm
emission maximum (in CS(C)=O): 543 nm
emission maximum (in ClCCl): 490 nm
SMILES: CN(C)c1ccc(-c2ncnc3ccccc23)cc1

emission maximum (in ClCCl): 515 nm
SMILES: CCCCCCN1C(=O)c2cccc3c(-c4ccc(-c5cc(-c6cccc7ccccc67)nn5-c5ccccc5)s4)ccc(c23)C1=O

emission maximum (in C1CCOC1): 429 nm
SMILES: Cc1cc(C)c([B-]2(c3c(C)cc(C)cc3C)[O+]=P(c3ccccc3)(c3ccccc3)c3ccsc3-c3sccc32)c(C)c1

emission maximum (in CCO): 584 nm
emission maximum (in ClCCl): 582 nm
SMILES: Cc1ccccc1-c1c2ccc(=[N+]3CCCCC3)cc-2oc2cc(N3CCCCC3)ccc12

emission maximum (in CO): 456 nm
emission maximum (in ClCCl): 440 nm
SMILES: CCCCCCN(CCCCCC)c1ccc(C#Cc2ccc(C(F)(F)F)cc2)cc1

emission maximum (in ClCCl): 380 nm
SMILES: c1ccc(N(c2ccccc2)c2ccc(-n3ccc4cc(-c5ccc6c(c5)C(c5ccccc5)(c5ccccc5)c5ccccc5-6)ccc43)cc2)cc1

emission maximum (in ClCCl): 442 nm
SMILES: CCOC(=O)c1c(-c2cc3c(ccc4ccccc43)oc2=O)nn(-c2cccc(Cl)c2)c1C(=O)OCC

SMILES: CC(=O)O[B-]1(OC(C)=O)OC(/C=C/c2ccc(C)cc2)=CC(/C=C/c2ccc(C)cc2)=[O+]1
emission maximum (in C1CCOC1): 484 nm
emission maximum (in CC#N): 493 nm
emission maximum (in CC(C)=O): 489 nm
emission maximum (in CS(C)=O): 499 nm
emission maximum (in Cc1ccccc1): 481 nm
emission maximum (in ClC(Cl)Cl): 491 nm
emission maximum (in ClCCl): 492 nm

emission maximum (in C1CCOC1): 449 nm
SMILES: c1ccc(-c2cnc3nn4ccccc4c3n2)cc1

emission maximum (in ClCCl): 450 nm
SMILES: Fc1ccc(C#Cc2c(C#Cc3ccc(F)cc3)c(C#Cc3ccc(F)cc3)c(C#Cc3ccc(F)cc3)c(C#Cc3ccc(F)cc3)c2C#Cc2ccc(F)cc2)cc1

emission maximum (in CN(C)C=O): 604 nm
emission maximum (in CS(C)=O): 625 nm
SMILES: C=CCNS(=O)(=O)c1ccc2c(c1)C(=O)/C(=C1\Sc3ccc(S(=O)(=O)NCC=C)cc3C1=O)S2

emission maximum (in ClC(Cl)Cl): 703 nm
SMILES: CCOC(=O)/C=C/C1=C(c2ccc(C)cc2)C2=Nc3c(-c4ccc(C)cc4)c(Br)c(-c4ccc(C)cc4)n3[B-](F)(F)[N+]2=C1c1ccc(C)cc1

SMILES: Cc1ccc(-c2cc(-c3ccc(N(C)C)cc3)c3c(N)nc(N4CCCC4)c(C#N)c3n2)cc1
emission maximum (in CC#N): 514 nm
emission maximum (in CC(C)=O): 511 nm
emission maximum (in CC(C)O): 506 nm
emission maximum (in CO): 517 nm
emission maximum (in ClC(Cl)Cl): 496 nm
emission maximum (in ClCCl): 503 nm
emission maximum (in c1ccccc1): 500 nm

emission maximum (in C1COCCO1): 405 nm
emission maximum (in CC#N): 413 nm
emission maximum (in CO): 429 nm
emission maximum (in ClCCl): 403 nm
SMILES: CNc1ncc2nc(C(=O)OC)n(Cc3ccccc3)c2n1

emission maximum (in CCCCCC): 471 nm
SMILES: COC(=O)c1c(C(=O)OC)c2ccc(-c3ccccc3)nn2c1C

emission maximum (in C1CCOC1): 412 nm
emission maximum (in CO): 423 nm
SMILES: CCOC(=O)C1=CNC=C(C(=O)OCC)C1c1ccccc1

emission maximum (in ClCCl): 438 nm
SMILES: CCCCC(CC)COc1ccc2nc(-c3ccc(-c4cccs4)s3)sc2c1 (stereo unspecified)

emission maximum (in CC#N): 463 nm
emission maximum (in ClCCl): 464 nm
SMILES: COC(=O)c1cc(=O)n(C)c2cc(-c3cccc(OC)c3)sc12

SMILES: C(#Cc1ccc(-n2c3ccccc3c3ccccc32)cc1)c1ccccc1
emission maximum (in CC#N): 443 nm
emission maximum (in CO): 401 nm
emission maximum (in Cc1ccccc1): 364 nm
emission maximum (in ClC(Cl)Cl): 379 nm
emission maximum (in ClCCl): 390 nm

emission maximum (in CC1CCCCC1): 356.74 nm
emission maximum (in CC#N): 374.95 nm
emission maximum (in CO): 384.74 nm
SMILES: COC(=O)C(Cc1ccc2oc(-c3ccncc3)nc2c1)NC(=O)OC(C)(C)C (stereo unspecified)

emission maximum (in ClC(Cl)Cl): 526 nm
SMILES: C(=N\c1ccc(-c2cn3nc(-c4cccs4)sc3n2)cc1)/c1c2ccccc2cc2ccccc12

SMILES: c1ccc(-n2c3ccccc3c3c2c2ccccc2n3-c2ccccc2)cc1
emission maximum (in Cc1ccccc1): 376 nm

emission maximum (in ClC(Cl)Cl): 413 nm
SMILES: N#Cc1ccc(Oc2ccc3c4c(cccc24)C(=O)N(CCO)C3=O)cc1

emission maximum (in CS(C)=O): 520 nm
SMILES: COc1ccc(-c2cc(/C=C/c3ccc(N(c4ccccc4)c4ccccc4)cc3)c(C#N)c(N3CCCCC3)c2)cc1

emission maximum (in CO): 652 nm
emission maximum (in CS(C)=O): 664 nm
emission maximum (in O): 653 nm
SMILES: CCCN1/C(=C/C=C(/C=C/C2=[N+](CCC)c3ccccc3C2(C)C)c2ccc3ccccc3n2)C(C)(C)c2ccccc21

SMILES: N#Cc1ccccc1N1c2ccccc2C(c2ccccc2)(c2ccccc2)c2ccccc21
emission maximum (in Cc1ccccc1): 441 nm

SMILES: c1ccc([B-]2(c3ccccc3)Oc3ccc4ccccc4c3-c3c4ccccc4nc[n+]32)cc1
emission maximum (in Cc1ccccc1): 543 nm
